# Results reported in patent US5550124A, “Use of peripheral-type benzodiazpine sites for treatment of CNS trauma or disease” (priority 1991, dated 1996).
# Entries after “also recorded” stand apart in the source; their conditions may differ. Where two headings read alike, the source gives them in different places.
# How the values were obtained:
# [1] = system: peripheral-type BZ receptor; assay: Antagonism of Ro5 4864-induced improvement of grip score by PK 14105 following head injury; type: in vivo, mice; details: for GRIP TEST SCORE: tested 1 hour after injury
# Text: Male CF-1 mice (15-25 gm) were weighed and marked for identification purposes. Each individual mouse was restrained by grasping the dorsal skin of the neck until the mouse was still. An impounder was used to administer the trauma. The impounder consists of a weight suspended over the animal's head at a height sufficient to produce significant injury when dropped, and a means for immobilizing the animal (in this case, room to hold the animal in place). An example of such an impounder can be found in Hall, E.D., "High Dose Glucocorticoid Treatment Improves Neurological Recovery in Head Injured Mice," J. Neurosurg. 62:882-887, 883. The mouse was positioned properly under the impounder, and the weight was released from its preset height (11 CM).
# (§1) Each mouse was picked up by the tail and placed on the string. […] The tail was then released. Grip score was recorded based on the mouse's performance while on the string. The following criteria were used (taken from Hall, E. D., J. Neurosurg. 62:882-887 (1985)):
# The inhibitory agonist alone does (row 2 as compared to row 1).
# ^a Animals were administered vehicle or PK 14105 i.v. 30 min prior to
# ^b Animals were administered vehicle or Ro5 4864 i.v. 5 min after hea
# ^c Animals were tested 1 hour after headinjury
# [2] = Physical trauma (head injury) model, grip score 18 hours post-injury; type: in vivo, mice (male CF-1); details: for effectiveness in treatment of CNS trauma/damage (in words): grip score 18 h post trauma, FIGS. 1-8
# Text: Two tests which can be readily performed are observation of grip score and observation of grip time in injured test animals. Another test for agonist activity is for decrease in mortality caused by the CNS injury. Mice can be treated to simulate CNS injury by a variety of methods: they can be deprived of oxygen by administration of KCN (Nauquier, A., et al., Arch. Int. Pharmacodyn., 249:330 (1981)) or by temporary tying-off of the carotid artery (Braughler, J. M. and Lainer, M. J., "The effects of large doses of methylprednisolone on neurologic recovery and survival in the Mongolian gerbil following three hours of unilateral carotid occlusion," CNS Trauma, 3:153-162 (1986)). Alternatively, blows can be administered to the head or the spinal cord of the test animal.
# The following protocol was used:
# The compound to be tested was weighed and suspended in a polyethylated castor oil solution ("Cremophore") (21% Cremaphore, 3% ethanol in 0.9% saline). The concentration of the solution was then adjusted for administration at a dose of 0.01 cc/gm body weight. For example, for a dose of 10 mg/Kg, the solution was made 1.0 mg/cc, and a 23 g mouse would receive 0.23 cc of this solution. The solution was sonicated for approximately 90 minutes, or until the compound is dissolved.
# Male CF-1 mice (15-25 gm) were weighed and marked for identification purposes. Each individual mouse was restrained by grasping the dorsal skin of the neck until the mouse was still. An impounder was used to administer the trauma. The impounder consists of a weight suspended over the animal's head at a height sufficient to produce significant injury when dropped, and a means for immobilizing the animal (in this case, room to hold the animal in place). […] 62:882-887, 883. The mouse was positioned properly under the impounder, and the weight was released from its preset height (11 CM).
# Immediately following injury, the mouse was placed under a heat lamp. At various times after injury, the drug was administered intravenously at the specified dose. The time of injury and the time of injection were recorded.
# B) Measurement of Grip Score
# Each mouse was evaluated 18 hours post-injury for neurological deficit. The delay of 18 hours provided time for any sedative effects of the compound to wear off. It also provided time for healing to occur. Mortality was also noted. A standard grip test, as described in Hall et al., J. Neurosurg. 68:456-461 (1988), was used. The apparatus consisted of a taut string suspended between two uprights, 60 cm in length and 40 cm above a padded table.
# as §1
# C) Statistical Analysis Results of the above test were analyzed for statistical significance using the Mann-Whitney U test. See R. V. Tallarida & R. B. Murray, MANUAL OF PHARMACOLOGIC CALCULATIONS WITH COMPUTER PROGRAMS, Springer-Verlag, N.Y., pp. 57-59 (1981). This test was used to compare each set of grip scores for a particular dose of a particular compound against the grip scores for the control group.
# [3] = target: T1, peripheral-type BZ receptors (Rattus norvegicus, UniProt P16257); assay: Competitive binding assay, displacement of 3H-Ro5-4864 in brain homogenates
# T1 construct: displacement of ^3 H-RO5-4864 in brain homogenates; from tissue; host or cells: brain homogenates
# Text: Sprengel, R., et al., "Molecular cloning and expression of cDNA encoding a peripheral-type benzodiazepine receptor," J. Biol. Chem., 264:20415-20421 (1989).
# Some of these compounds were further tested in in vivo studies.
# [4] = Physical trauma (head injury) model, grip score 18 hours post-injury; type: in vivo, mice (male CF-1); details: by extrapolation from Table 3 binding data
# [5] = target: T1, peripheral-type BZ receptors; details: # data from Wang et al., Mol. Pharmacol. 25:349-351 (1984); cited from earlier work
# [6] = system: platelet aggregation; details: cited from earlier work
# [7] = system: NMDA receptor; details: cats; cited from earlier work
# [8] = system: NMDA receptor; details: in vivo; cited from earlier work
# [9] = in vivo; cited from earlier work
compound,measurement,setting,value
"CN1C(=O)CN=C(c2ccc(Cl)cc2)c2cc(Cl)ccc21 [Ro5-4864, 4',7-Dichloro-1,3-dihydro-1-methyl-5-phenyl-2H-1,4-benzodiazepin-2-one]",GRIP TEST SCORE,[1]; preinjury 10 mg/kg PK 14104 (sic) plus postinjury 0.3 mg/kg Ro5 4864,0.93 ± 0.21
same,GRIP TEST SCORE,"[1]; preinjury vehicle, 0.3 mg/kg i.v. 5 min after injury, vehicle/vehicle 1.13 ± 0.27, P<0.05",1.84 ± 0.24
same,effectiveness in treatment of CNS trauma/damage (in words),[2],effective
"CN1C(=O)CN=C(c2ccccc2)c2ccccc21 [Ro5-3464, 1,3-Dihydro-1-methyl-5-phenyl-2H-1,4-benzodiazepin-2-one]",IC50,[3],1230 nM
same,binding affinity to peripheral-type BZ sites (in words),[3],very high IC50 values
same,effectiveness in treatment of CNS trauma/damage (in words),[2],non-effective; also recorded: inactive in the treatment of CNS damage
"CN1C(=O)CN=C(c2ccc(Cl)cc2Cl)c2cc(Cl)ccc21 [Ro5-6902, 4',6',7-Trichloro-1,3-dihydro-1-methyl-5-phenyl-2H-1,4-benzodiazepin-2-one]",effectiveness for treatment of CNS trauma or disease (in words),[4],effective
same,IC50,[5],23.4 nM
"CCN1C(=O)CN=C(c2ccc(Cl)cc2)c2cc(Cl)ccc21 [Ro5-6993, 4',7-Dichloro-1-ethyl-1,3-dihydro-5-phenyl-2H-1,4-benzodiazepin-2-one]",effectiveness for treatment of CNS trauma or disease (in words),[4],effective
same,IC50,[5],6.1 nM
"CN1C(=O)CN=C(c2ccccc2Cl)c2ccccc21 [Ro5-4608, 2'-Chloro-1,3-dihydro-1-methyl-5-phenyl-2H-1,4-benzodiazepin-2-one]",IC50,[5],215 nM
CC(=O)Oc1ccccc1C(=O)O [Aspirin],effect on platelet aggregation,[6],inhibit platelet aggregation
"CN1C(=O)CN=C(c2ccc(Cl)cc2)c2cc(F)ccc21 [Ro5-6524, 4'-Chloro-7-fluoro-1,3-dihydro-1-methyl-5-phenyl-2H-1,4-benzodiazepin-2-one]",IC50,[5],340 nM
O=C1C(CC[S+]([O-])c2ccccc2)C(=O)N(c2ccccc2)N1c1ccccc1 (centres unmarked) [sulfinpyrazone],effect on platelet aggregation,[6],inhibit platelet aggregation
"COc1ccc(C2=NCC(=O)N(C)c3ccc(Cl)cc32)cc1 [Ro5-6669, 7-Chloro-1,3-dihydro-4'-methoxy-1-methyl-5-phenyl-2H-1,4-benzodiazepin-2-one]",effectiveness for treatment of CNS trauma or disease (in words),[4],effective
same,IC50,[5],18.7 nM
"CN1C(=O)CN=C(c2ccc(F)cc2)c2ccccc21 [Ro5-5122, 4'-Fluoro-1,3-dihydro-1-methyl-5-phenyl-2H-1,4-benzodiazepin-2-one]",IC50,[5],442 nM
Clc1ccccc1CN1CCc2sccc2C1 [ticlopidine],effect on platelet aggregation,[6],inhibit platelet aggregation
O=C(O)[C@H]1CN(C/C=C/P(=O)(O)O)CCN1 [D-CPPene],effect on blood pressure,[7],induces hypotension
CC(C)(C)OC(=O)c1ncn2c1[C@@H]1CCCN1C(=O)c1c(Br)cccc1-2 [Rol6-6028],IC50,[3],> 10000 nM
same,effectiveness in treatment of CNS trauma/damage (in words),[2],inactive in the treatment of CNS damage
O=C(O)C1CN(CCCP(=O)(O)O)CCN1 (centres unmarked) [CPP],adverse reactions,[8],respiratory depression and elevated CO2 level
"CN1C(=O)CN=C(c2ccc(Cl)cc2)c2cc(F)ccc21 [Ro5-6531, 4'-Chloro-7-fluoro-1,3-dihydro-1-methyl-5-phenyl-2H-1,4-benzodiazepin-2-one]",IC50,"[3]; displacement of 3H-Ro5-4864 in brain homogenates, * data by procedure described herein",33.4 nM
same,effectiveness in treatment of CNS trauma/damage (in words),[2],effective
"CN1C(=O)CN=C(c2ccccc2Cl)c2cc(Cl)ccc21 [Ro5-3448, 2',7-Dichloro-1,3-dihydro-1-methyl-5-phenyl-2H-1,4-benzodiazepin-2-one]",effectiveness for treatment of CNS trauma or disease (in words),[4],effective
same,IC50,[5],35.2 nM
O=C1CN=C(c2ccccc2Cl)c2cc([N+](=O)[O-])ccc2N1 [Clonazepam],IC50,[3],9180 nM
same,effectiveness in treatment of CNS trauma/damage (in words),[2],inactive in the treatment of CNS damage
"CCC(C)N(C)C(=O)c1cc2ccccc2c(-c2cc([N+](=O)[O-])ccc2F)n1 (centres unmarked) [PK 14105, 1-(2-fluoro-5-nitrophenyl)-1-methyl-N(1-methyl-propyl)-3-isoquinoline carboxamide]",binding affinity to peripheral-type BZ sites (in words),[3],very strong binding affinity
same,IC50,"[3]; displacement of 3H-Ro5-4864 in brain homogenates, * data by procedure described herein, read-out: IC50",4.5 nM
same,GRIP TEST SCORE,"[1]; 10 mg/kg i.v. 30 min preinjury, postinjury vehicle",1.40 ± 0.28
same,effect of the antagonist on grip score (in words),[1]; antagonist alone,no statistically significant effect on grip score post trauma
same,effect on agonist-induced improvement of grip score (in words),"[1]; antagonist with inhibitory agonist, 1 hour post-trauma",prevents the agonist from improving grip score
same,effectiveness in treatment of CNS trauma/damage (in words),[2],inactive in treating CNS damage
same,functional class at the peripheral-type BZ receptor (in words),[2]; inferred from binding and lack of grip score effect,antagonist to the peripheral-type BZ receptor
same,grip scores compared with controls (in words),"[2]; moderate and high doses, FIG. 8",stay the same as those of the controls
"CN1C(=O)CN=C(c2c(Cl)cccc2Cl)c2cc(Cl)ccc21 [Ro7-5520, 2',6',7-Trichloro-1,3-dihydro-1-methyl-5-phenyl-2H-1,4-benzodiazepin-2-one]",IC50,[5],93.1 nM
OC[C@@H](O)[C@@H](O)[C@H](O)[C@H](O)CO [mannitol],adverse effects,[9],severe rebound cerebral edema
"C=CCN1C(=O)CN=C(c2ccc(Cl)cc2)c2cc(Cl)ccc21 [Ro5-6945, 1-Allyl-4',7-dichloro-1,3-dihydro-5-phenyl-2H-1,4-benzodiazepin-2-one]",effectiveness for treatment of CNS trauma or disease (in words),[4],effective
same,IC50,[5],14.3 nM
"CN1C(=O)CN=C(c2ccc(Cl)cc2)c2ccccc21 [Ro5-5115, 4'-Chloro-1,3-dihydro-1-methyl-5-phenyl-2H-1,4-benzodiazepin-2-one]",IC50,[5],106 nM
heparin,adverse effects,[9],high risk of brain and/or systemic hemorrhage
"CN1C(=O)CN=C(c2ccc(Cl)cc2Cl)c2cc(Cl)ccc21 [Ro5-6900, 2',4',7-Trichloro-1,3-dihydro-1-methyl-5-phenyl-2H-1,4-benzodiazepin-2-one]",effectiveness for treatment of CNS trauma or disease (in words),[4],effective
same,IC50,[5],10 nM
